Assay results from patent publication US9278962B2 (Cytokinetics, Inc., priority 2011, dated 2016).

Tested on: rabbit skeletal myofibrils (approximately 90% fast fibers)
Experiment: Activation of fast skeletal myofibrils (PUMA coupled-enzyme ATPase assay, AC1.4)
Assay type: biochemical
Conditions: Table 2; concentration at which the compound increased enzymatic activity by 40%; calcium at pCa25

| Mean AC1.4 | Structure (SMILES) |
| --- | --- |
| D (D=>20 uM) | Clc1ccc(CNc2nc(Cc3ccc(Cl)cc3)ns2)cc1 [[(4-chlorophenyl)methyl]{3-[(4-chlorophenyl)methyl](1,2,4-thiadiazol-5-yl)}amine] |
| D (D=>20 uM) | CC(C)(CNc1nc(CCC(=O)N2CCCC(O)C2)ns1)c1ccc(F)cc1 (stereo not drawn) [3-(5-{[2-(4-fluorophenyl)-2-methylpropyl]amino}(1,2,4-thiadiazol-3-yl))-1-(3-hydroxypiperidyl)propan-1-one] |
| C (C=10-20 uM) | CC(C)(CNc1nc(CCC(=O)N2CCCC2)ns1)c1ccc(F)cc1 [3-(5-{[2-(4-fluorophenyl)-2-methylpropyl]amino}(1,2,4-thiadiazol-3-yl))-1-pyrrolidinylpropan-1-one] |
| D (D=>20 uM) | CC(C)(CNc1nc(CCN2CCCCC2)ns1)c1ccc(F)cc1 [[2-(4-fluorophenyl)-2-methylpropyl][3-(2-piperidylethyl)(1,2,4-thiadiazol-5-yl)]amine] |
| B (B=1-10 uM) | COC(=O)NCCCc1nsc(NCC(C)(C)c2ccc(F)cc2)n1 [N-[3-(5-{[2-(4-fluorophenyl)-2-methylpropyl]amino}(1,2,4-thiadiazol-3-yl))propyl]methoxycarboxamide] |
| C (C=10-20 uM) | CC(C)Nc1nsc(NCC(C)(C)c2ccc(F)cc2)n1 [[2-(4-fluorophenyl)-2-methylpropyl]{3-[(methylethyl)amino](1,2,4-thiadiazol-5-yl)}amine] |
| A (A=<1 uM) | CC(C)(CNc1nc(-c2ccc(C(N)=O)cc2)ns1)c1ccc(F)cc1 [4-(5-{[2-(4-fluorophenyl)-2-methylpropyl]amino}-1,2,4-thiadiazol-3-yl)benzamide] |
| A (A=<1 uM) | COc1cccc(Cc2nsc(NCC(C)(C)c3ccc(Cl)cc3)n2)c1 [[2-(4-chlorophenyl)-2-methylpropyl]{3-[(3-methoxyphenyl)methyl](1,2,4-thiadiazol-5-yl)}amine] |
| D (D=>20 uM) | CC(C)(CNc1nc(CNCCO)ns1)c1ccc(F)cc1 [2-{[(5-{[2-(4-fluorophenyl)-2-methylpropyl]amino}-1,2,4-thiadiazol-3-yl)methyl]amino}ethan-1-ol] |
| B (B=1-10 uM) | CCOC(=O)CCc1nsc(NCC(C)(C)c2ccc(F)cc2)n1 [ethyl 3-(5-{[2-(4-fluorophenyl)-2-methylpropyl]amino}-1,2,4-thiadiazol-3-yl)propanoate] |

Same assay, conditions: Table 3; concentration at which the compound increased enzymatic activity by 40%; calcium at pCa25

| Mean AC1.4 | Structure (SMILES) |
| --- | --- |
| B (B=1-10 uM) | Fc1cccnc1C1(CNc2nnc(-c3ccc(Br)cc3)s2)CCC1 [5-(4-bromophenyl)-N-((1-(3-fluoropyridin-2-yl)cyclobutyl)methyl)-1,3,4-thiadiazol-2-amine] |
| B (B=1-10 uM) | Cc1ccsc1-c1nnc(NC[C@]2(c3ncccc3F)C[C@@H](F)C2)s1 [N-(((cis)-3-fluoro-1-(3-fluoropyridin-2-yl)cyclobutyl)methyl)-5-(3-methylthiophen-2-yl)-1,3,4-thiadiazol-2-amine] |
| A (A=<1 uM) | Fc1ccc(Br)cc1-c1nnc(NCC2(c3ncccc3F)CCC2)s1 [5-(5-bromo-2-fluorophenyl)-N-((1-(3-fluoropyridin-2-yl)cyclobutyl)methyl)-1,3,4-thiadiazol-2-amine] |
| B (B=1-10 uM) | NC(=O)c1ccc(-c2nnc(NC[C@]3(c4ncccc4F)C[C@H](F)C3)s2)s1 [5-(5-((3-fluoro-1-(3-fluoropyridin-2-yl)cyclobutyl)methylamino)-1,3,4-thiadiazol-2-yl)thiophene-2-carboxamide] |
| A (A=<1 uM) | NC(=O)c1ccc(Cl)c(-c2nnc(NC[C@]3(c4ncccc4F)C[C@H](F)C3)s2)c1 [4-chloro-3-(5-((3-fluoro-1-(3-fluoropyridin-2-yl)cyclobutyl)methylamino)-1,3,4-thiadiazol-2-yl)benzamide] |
| B (B=1-10 uM) | N#Cc1cccc(-c2nnc(NC[C@]3(c4ncccc4F)C[C@H](F)C3)s2)c1 [3-(5-(((trans)3-fluoro-1-(3-fluoropyridin-2-yl)cyclobutyl)methylamino)-1,3,4-thiadiazol-2-yl)benzonitrile] |
| A (A=<1 uM) | Fc1cccnc1[C@]1(CNc2nnc(-c3cc(Br)ccc3Cl)s2)C[C@@H](F)C1 [5-(5-bromo-2-chlorophenyl)-N-(((trans)-3-fluoro-1-(3-fluoropyridin-2-yl)cyclobutyl)methyl)-1,3,4-thiadiazol-2-amine] |
| D (D=>20 uM) | Cc1ccc(-c2nnc(NC[C@]3(c4ncccc4F)C[C@@H](F)C3)s2)s1 [N-(((cis)-3-fluoro-1-(3-fluoropyridin-2-yl)cyclobutyl)methyl)-5-(5-methylthiophen-2-yl)-1,3,4-thiadiazol-2-amine] |

Same assay, conditions: Table 4; concentration at which the compound increased enzymatic activity by 40%; calcium at pCa25

| Mean AC1.4 | Structure (SMILES) |
| --- | --- |
| B (B=1-10 uM) | COc1cccnc1C1(CNc2nc3ccc(Cl)cc3s2)CCC1 [6-chloro-N-((1-(3-methoxypyridin-2-yl)cyclobutyl)methyl)benzo[d] thiazol-2-amine] |
| C (C=10-20 uM) | N#Cc1ccc2sc(NC[C@]3(c4ncccc4F)C[C@H](F)C3)nc2c1 [2-((3-fluoro-1-(3-fluoropyridin-2-yl)cyclobutyl)methylamino)benzo[d] thiazole-5-carbonitrile] |
| D (D=>20 uM) | COc1cccnc1C1(CNc2nc3ccc(C#N)cc3s2)CCC1 [2-((1-(3-methoxypyridin-2-yl)cyclobutyl)methylamino)benzo[d] thiazole-6-carbonitrile] |
| B (B=1-10 uM) | N#Cc1ccc2nc(NCC3(c4ncccc4F)CCC3)sc2c1 [2-((1-(3-fluoropyridin-2-yl)cyclobutyl)methylamino)benzo[d] thiazole-6-carbonitrile] |

The next lines start with the compound.

| Structure (SMILES) | Mean AC1.4 |
| --- | --- |
| COc1ccc(C2(CNc3nc4ccc(C#N)cc4s3)CCC2)nc1 [2-((1-(5-methoxypyridin-2-yl)cyclobutyl)methylamino)benzo[d] thiazole-6-carbonitrile] | D (D=>20 uM) |
| CC(C)(CNc1nc2cc(Cl)ccc2s1)c1ccc(F)cc1 [5-chloro-N-(2-(4-fluorophenyl)-2-methylpropyl)benzo[d]thiazol-2-amine] | B (B=1-10 uM) |
| CC(C)(CNc1nc2c(C#N)cc(C(N)=O)cc2s1)c1ccc(F)cc1 [4-cyano-2-(2-(1-fluorophenyl)-2-methylpropylamino)benzo[d] thiazole-6-carboxamide] | A (A=<1 uM) |
| NC(=O)c1ccc2nc(NCC3(c4ccccn4)CCC3)sc2c1 [2-((1-(pyridin-2-yl)cyclobutyl)methylamino)benzo[d] thiazole-6-carboxamide] | B (B=1-10 uM) |

Same assay, conditions: Table 5; concentration at which the compound increased enzymatic activity by 40%; calcium at pCa25

| Mean AC1.4 | Structure (SMILES) |
| --- | --- |
| D (D=>20 uM) | Fc1ccc(Br)cc1-c1nnc(NC2(c3ncccc3F)CCC2)[nH]1 [5-(5-bromo-2-fluorophenyl)-N-(1-(3-fluoropyridin-2-yl)cyclobutyl)-4H-1,2,4-triazol-3-amine] |
| D (D=>20 uM) | Fc1cccnc1C1(CNc2cnc(-c3ccccc3)s2)CCC1 [N-((1-(3-fluoropyridin-2-yl)cyclobutyl)methyl)-2-phenylthiazol-5-amine] |

The next lines start with the compound.

| Structure (SMILES) | Mean AC1.4 |
| --- | --- |
| Fc1cccnc1C1(CNc2cnn(-c3ccccc3)c2)CCC1 [N-((1-(3-fluoropyridin-2-yl)cyclobutyl)methyl)-1-phenyl-1H-pyrazol-4-amine] | D (D=>20 uM) |
| CC(C)(Nc1nnc(-c2cc(C#N)ccc2F)o1)c1ccc(F)cc1 [4-fluoro-3-(5-(2-(4-fluorophenyl)propan-2-ylamino)-1,3,4-oxadiazol-2-yl)benzonitrile] | D (D=>20 uM) |
